Measurements published in article PMC9928118, “Funneling modulatory peptide design with generative models: Discovery and characterization of disruptors of calcineurin protein-protein interactions” (PLOS Computational Biology, 2023).

B1: rbmRIPOR2 (peptide)
peptide: Ac-ASVSNPEITVTSAETE-NH2
notes: cRBM-designed; source: synthetic peptide (peptide2 Inc)
B2: rbmTRESK (peptide)
peptide: Ac-ADEAIPEIVISKPEEP-NH2
notes: cRBM-designed (low temperature sampling); source: synthetic peptide (peptide2 Inc)
B3: rbmAKAP79 (peptide)
peptide: Ac-AAGAGVGIVITVTEAE-NH2
notes: as for B2
B4: rbmAKAP79_2 (peptide)
peptide: Ac-ADGAGVGIVITVTEAE-NH2
notes: as for B2
B5: rbmCAPN11 (peptide)
peptide: Ac-TYWTNPQFRVTLEDPD-NH2
notes: cRBM-designed (low temperature sampling); (Schistosoma mansoni CAPN11), 2 mutations; source: synthetic peptide (peptide2 Inc)
B6: TRESK peptide (peptide)
peptide: Ac-ADEAVPQIIISAEELP-NH2
notes: source: synthetic peptide (peptide2 Inc)
B7: rbmRIPOR2_2 (peptide)
peptide: Ac-HVSSSPRITITPTQHR-NH2
notes: as for B2
B8: rbmTRESK_2 (peptide)
peptide: Ac-ADEAIPEITITSAELP-NH2
notes: as for B2

Legend:
[1] = target: T1, Calcineurin (Cn) catalytic domain (Cn A), PxIxIT binding site (Homo sapiens, UniProt Q08209, L343A/M347D/Y341S); experiment: Fluorescence polarization (FP) competition assay against FITC-labeled PVIVIT peptide; conditions: for Ability to compete with PVIVIT for Cn binding: 100nM FITC-labeled PVIVIT peptide, 4uM Cn A, result in words; for IC50: read-out: IC50 (competition with FITC-labeled PVIVIT peptide for Cn binding), 100nM FITC-labeled PVIVIT peptide, 4uM Cn A, variable peptide concentrations, 96-well plate, triplicate, single site inhibition model fit, NB = No binding
T1 construct: the gene encoding to residues 2–347 with substitutions Y341S, L343A, and M347D was expressed as a cleavable GST fusion protein; GST; made in house; host or cells: E. coli BL21
T1 sequence (Q08209 2-347 Y341S/L343A/M347D): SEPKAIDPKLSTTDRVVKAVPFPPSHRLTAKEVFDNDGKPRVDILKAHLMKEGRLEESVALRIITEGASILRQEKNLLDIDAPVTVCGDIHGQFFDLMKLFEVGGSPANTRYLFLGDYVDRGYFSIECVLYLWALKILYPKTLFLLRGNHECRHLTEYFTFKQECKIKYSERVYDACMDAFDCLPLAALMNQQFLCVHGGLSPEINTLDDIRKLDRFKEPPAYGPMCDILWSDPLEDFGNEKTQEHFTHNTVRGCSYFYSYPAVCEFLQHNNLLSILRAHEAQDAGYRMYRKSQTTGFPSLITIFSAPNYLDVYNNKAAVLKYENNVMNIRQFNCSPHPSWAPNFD
Protocol: Polarization levels were read and normalized values were fitted to a single site model.
Selected peptides were synthesized and their ability to specifically bind the Cn PxIxIT binding site was evaluated by FP competition assay (Methods).
The catalytic domain of Cn was expressed as described in [84, 85]. […] Growing in LB, after reaching to OD(600nm) = 0.8, protein expression was induced by the addition of 1 mM IPTG at 25°C. The cells were harvested after 16h and resuspended in PBS-based lysis buffer suitable for downstream purification onto GST column (Glutathione Sepharose 4 Fast Flow) of the soluble fraction after disrupted by sonication and remove of all non-soluble debris by centrifuge. Elution from the GST column was further purified by size exclusion chromatography with the superdex75 column.
Fluorescence measurements were performed on samples arrayed in a 96-well plate using Biotek HybridH1 reader equipped with a polarized optic system. All measurements were done in triplicate.

GST-tagged Cn [2] = experiment: PEPperPRINT peptide microarray binding assay with GST-tagged Cn; conditions: GST-tagged Cn, mean over the duplicate spots (Location on chip)
How it was run: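 Qualitative binding: peptides printed on a PEPperPRINT microarray were incubated overnight at 4 °C with 1 mg/ml GST-tagged Cn, then detected with Alexa-Fluor 647 anti-GST antibody. Log fluorescence was baseline-corrected, averaged over duplicate spots, Z-normalized and averaged across five repeats.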

GST-tagged Cn [3] = experiment: as above; conditions: max over the duplicate spots (Location on chip)
[4] = target: T2, catalytic domain of Calcineurin (Cn A), residues 2-347 with Y341S, L343A, M347D (UniProt Q08209 2-347, Y341S | L343A | M347D); experiment: fluorescence polarisation; competition: variable concentrations of non-labeled peptide added to 100 nM FITC-labeled PVIVIT peptide and 4 uM Cn A, 96-well plate, triplicate; fitted to a single site inhibition model; conditions: both partners purified
T2 construct: Calcineurin catalytic domain (calcineurin A), residues 2-347, with substitutions Y341S, L343A, M347D; Expressed as a cleavable GST fusion; source: E. coli BL21, purified (Glutathione Sepharose 4 Fast Flow, size exclusion on Superdex 75)
T2 sequence (Q08209 2-347 Y341S/L343A/M347D): as above

Molecule	Chip Fluorescence (mean) (GST-tagged Cn [2])	Chip Fluorescence (max) (GST-tagged Cn [3])	also measured
Ac-AAGAGVGIVITVTEAE-NH2 [rbmAKAP79]			Ability to compete with PVIVIT for Cn binding [1]: successfully competed with PVIVIT binding
Ac-ADGAGVGIVITVTEAE-NH2 [rbmAKAP79_2]			Ability to compete with PVIVIT for Cn binding [1]: successfully competed with PVIVIT binding
Ac-RTYINPFMLFEDMGSR-NH2 [rbmSFB3]			IC50 [1]: > 257 µM
Ac-TFHTNPQYRIKLEEPD-NH2 [rbmCAPN11_2]			IC50 [1]: > 257 µM
Ac-TFWTNPQYRIKLEEAD-NH2 [rbmCAPN11_3]			IC50 [1]: > 257 µM
Ac-TTAMNPQFFVQIPRTA-NH2 [CAPN11]			IC50 [1]: > 257 µM
TFWSNPQYRITLEDPD [SeqRBMlowT_78]	0.4904	2.0958	
TFWTNPQFKFRLEDPD [SeqRBMlowT_7471]	0.6593	2.466	
TFWTNPQFKVSLEEPD [SeqRBMlowT_97]	0.2931	2.43	
TFWTNPQFRIKLEDED [SeqRBMlowT_645]	1.091	2.265	
TFWTNPQFRIKLEEPD [SeqRBMlowT_8]	-0.1106	2.218	
TFWTNPQFRITLEEPD [SeqRBMlowT_11]	0.7438	2.387	
TFWTNPQFRVHLEDED [SeqRBMlowT_4265]	1.067	1.93	
TFWTNPQFVVSLPEED [SeqRBMlowT_8537]	-0.2871	2.16	
TFWTNPQITVTLAEDD [SeqRBMlowT_3250]	1.296	2.572	
TFWTNPQYKITLEDED [SeqRBMlowT_7336]	1.363	2.0782	
TFWTNPQYKITLEDPD [SeqRBMlowT_219]	1.018	2.355	

Molecule	Chip Fluorescence (mean) (GST-tagged Cn [2])	Chip Fluorescence (max) (GST-tagged Cn [3])	also measured
TFWTNPQYRIKLEEVD [SeqRBMlowT_627]	-1.639	1.99	
TFWTNPQYRITLEDPD [SeqRBMlowT_604]	-0.2036	2.534	
TFWTNPQYRLKLEEPD [SeqRBMlowT_264]	0.9748	2.584	
TFWTNPQYVITLPEED [SeqRBMlowT_4660]	0.3942	1.913	
VEALSSRYGMATNLTG [Seqshuffled_4257]	0.2313	2.043	
WPWCRHPKKRNWLNWH [Seqrandom_9939]	1.3152	2.4643	
YCQWSNRATQIGHKPT [Seqrandom_9979]	-0.2818	2.027	
YRQAVRFEMPLTACAP [Seqrandom_9969]	0.771	2.355	
YTQIFPKCAMTIIKRK [Seqrandom_9966]	0.5369	2.341	
B1			IC50 [4]: 79 µM
B2			IC50 [4]: 14 µM
B3			IC50 [4]: 57 µM
B4			IC50 [4]: 69 µM
B5			IC50 [4]: 257 µM
B6			IC50 [4]: 54 µM
B7			IC50 [4]: 200 µM
B8			IC50 [4]: 60 µM
